From ChEMBL document CHEMBL1201862, “PubChem BioAssay data set” (2004)
Calls of active or inactive are those of the source.

Legend:
[1] = target: T1, Insulin-degrading enzyme (Homo sapiens, UniProt P14735); experiment: activators of recombinant IDE enzyme, dose response, counter-screen for IDE activator project, biochemical, fluorescence polarization (AID 588681)
T1 sequence (P14735 whole entry): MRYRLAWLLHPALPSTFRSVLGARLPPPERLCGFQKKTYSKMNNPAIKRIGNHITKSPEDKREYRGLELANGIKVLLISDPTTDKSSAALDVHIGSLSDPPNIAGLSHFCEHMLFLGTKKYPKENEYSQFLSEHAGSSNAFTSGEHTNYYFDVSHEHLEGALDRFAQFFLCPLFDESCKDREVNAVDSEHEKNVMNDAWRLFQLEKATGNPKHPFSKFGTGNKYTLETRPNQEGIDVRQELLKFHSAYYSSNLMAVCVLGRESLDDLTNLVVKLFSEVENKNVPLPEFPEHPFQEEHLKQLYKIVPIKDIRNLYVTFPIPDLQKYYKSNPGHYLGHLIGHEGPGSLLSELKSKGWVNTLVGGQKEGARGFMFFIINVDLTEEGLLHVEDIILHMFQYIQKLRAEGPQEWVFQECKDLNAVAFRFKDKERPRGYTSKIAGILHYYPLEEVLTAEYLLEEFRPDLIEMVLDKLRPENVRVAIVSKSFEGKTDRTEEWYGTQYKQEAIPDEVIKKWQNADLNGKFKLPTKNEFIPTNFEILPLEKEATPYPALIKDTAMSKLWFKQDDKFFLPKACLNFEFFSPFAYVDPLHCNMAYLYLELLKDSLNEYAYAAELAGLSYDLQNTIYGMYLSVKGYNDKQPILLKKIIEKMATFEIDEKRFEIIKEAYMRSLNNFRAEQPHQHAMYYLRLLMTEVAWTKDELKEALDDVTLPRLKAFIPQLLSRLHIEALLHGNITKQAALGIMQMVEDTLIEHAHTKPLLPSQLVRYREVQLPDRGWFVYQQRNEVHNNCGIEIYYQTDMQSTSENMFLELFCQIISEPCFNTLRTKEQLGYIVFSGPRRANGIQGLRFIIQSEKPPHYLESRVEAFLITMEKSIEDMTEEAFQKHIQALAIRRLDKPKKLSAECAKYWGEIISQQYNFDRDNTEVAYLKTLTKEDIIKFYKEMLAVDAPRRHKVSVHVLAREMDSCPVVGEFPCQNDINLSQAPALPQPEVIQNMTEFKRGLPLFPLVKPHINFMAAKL

[2] = target: T1, Insulin-degrading enzyme; experiment: activators of endogenous IDE in HEK cells, dose response, cell-based, fluorescence polarization (AID 588439); assay type: functional
[3] = HEp-2 cell cytotoxicity, dose response, cytotoxicity control for RSV inhibitor project, HTS (AID 2410); assay type: functional; settings: human respiratory syncytial virus
[4] = tested on: HEK293; experiment: HEK cell cytotoxicity by LDH release, dose response, cytotoxicity control for IDE activator project, fluorescence, HEK cells (AID 588440); assay type: functional, cell-based; settings: Homo sapiens;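 note: cytotoxicity by LDH release measuring loss of membrane integrity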
[5] = THP-1 cell cytotoxicity, dose response, cytotoxicity control for non-replicating M. tuberculosis project (AID 489025); assay type: functional
[6] = cells; assay type: functional
[7] = Vero E6 cell cytotoxicity, dose response, cytotoxicity control for non-replicating M. tuberculosis project, secondary assay (AID 492998); assay type: functional, VeroE6; settings: Vero C1008
[8] = HepG2 cell cytotoxicity, dose response, cytotoxicity control for non-replicating M. tuberculosis project (AID 489018); assay type: functional; settings: Mycobacterium tuberculosis
[9] = tested on: HEK293; experiment: optical interference in Abeta FP readout, dose response, artefact control for IDE activator project, biochemical, fluorescence polarization (AID 588442); assay type: functional, cell-based; settings: Homo sapiens
[10] = tested on: A-375; experiment: A375 melanoma cell viability reduction, dose response, counter-screen for MITF modulator project, cherry-pick samples, set 2 (AID 540335); assay type: functional, cell-based; settings: Homo sapiens
[11] = target: CAAX prenyl protease 2 (Homo sapiens, UniProt Q9Y256); experiment: human Rce1 protease inhibitors, dose response, biochemical, yeast membranes, quenched-peptide fluorescence, cherry-pick (AID 588849)
Sequence of CAAX prenyl protease 2 (Q9Y256 whole entry): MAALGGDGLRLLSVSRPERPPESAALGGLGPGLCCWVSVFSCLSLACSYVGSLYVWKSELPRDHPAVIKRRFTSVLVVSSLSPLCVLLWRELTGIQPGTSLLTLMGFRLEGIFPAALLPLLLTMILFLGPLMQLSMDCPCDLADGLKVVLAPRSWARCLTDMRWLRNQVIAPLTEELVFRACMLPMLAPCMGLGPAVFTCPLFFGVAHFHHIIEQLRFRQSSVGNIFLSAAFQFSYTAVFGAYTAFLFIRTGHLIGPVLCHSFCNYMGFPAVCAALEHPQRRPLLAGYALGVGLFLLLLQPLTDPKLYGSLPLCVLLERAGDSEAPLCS

[12] = target: Trypsin (Sus scrofa, UniProt P00761); experiment: porcine trypsin inhibitors, dose response, selectivity assay for Rce1 protease inhibitor project, biochemical, quenched peptide fluorescence, cherry-pick (AID 488789)
Sequence of Trypsin (P00761 whole entry): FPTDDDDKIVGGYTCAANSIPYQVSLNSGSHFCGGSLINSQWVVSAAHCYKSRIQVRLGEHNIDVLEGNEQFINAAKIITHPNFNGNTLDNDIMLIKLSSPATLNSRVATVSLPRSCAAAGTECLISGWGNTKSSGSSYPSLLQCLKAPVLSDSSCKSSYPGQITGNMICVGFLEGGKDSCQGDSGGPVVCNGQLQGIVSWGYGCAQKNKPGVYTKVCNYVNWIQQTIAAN

[13] = HepG2 cell cytotoxicity, dose response, cytotoxicity control, plate reader, cherry-pick, antagonist series (AID 743416); assay type: functional, cell-based
[14] = target: Delta-type opioid receptor (Homo sapiens, UniProt P41143); experiment: Counterscreen for agonists of heterodimerization of the mu 1 (OPRM1) and delta 1 (OPRD1) opioid receptors: Luminescence-based cell-based high throughput dose response assay to identify agonists of OPRD1 homodimerization. [Related pubchem assays (depositor defined):AID504326, AID504355, AID504692, AID504904, AID504905]; assay type: functional
Sequence of Delta-type opioid receptor (P41143 whole entry): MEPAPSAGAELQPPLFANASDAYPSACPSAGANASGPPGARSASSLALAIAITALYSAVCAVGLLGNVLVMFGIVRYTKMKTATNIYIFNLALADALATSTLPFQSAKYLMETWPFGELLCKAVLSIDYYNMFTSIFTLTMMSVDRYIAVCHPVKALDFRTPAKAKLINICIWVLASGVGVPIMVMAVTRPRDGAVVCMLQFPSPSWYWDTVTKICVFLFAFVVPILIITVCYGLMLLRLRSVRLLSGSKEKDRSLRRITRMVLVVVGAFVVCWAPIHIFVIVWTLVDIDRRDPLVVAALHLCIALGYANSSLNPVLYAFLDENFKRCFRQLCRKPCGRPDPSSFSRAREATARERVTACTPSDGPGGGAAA

[15] = target: Mu-type opioid receptor (Homo sapiens, UniProt P35372); experiment: Counterscreen for agonists of heterodimerization of the mu 1 (OPRM1) and delta 1 (OPRD1) opioid receptors: Luminescence-based cell-based high throughput dose response assay to identify agonists of OPRM1 homodimerization.; assay type: functional;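 note: U2OS cells expressing OPRM1 and beta-arrestin as split beta-galactosidase partners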
Sequence of Mu-type opioid receptor (P35372 whole entry): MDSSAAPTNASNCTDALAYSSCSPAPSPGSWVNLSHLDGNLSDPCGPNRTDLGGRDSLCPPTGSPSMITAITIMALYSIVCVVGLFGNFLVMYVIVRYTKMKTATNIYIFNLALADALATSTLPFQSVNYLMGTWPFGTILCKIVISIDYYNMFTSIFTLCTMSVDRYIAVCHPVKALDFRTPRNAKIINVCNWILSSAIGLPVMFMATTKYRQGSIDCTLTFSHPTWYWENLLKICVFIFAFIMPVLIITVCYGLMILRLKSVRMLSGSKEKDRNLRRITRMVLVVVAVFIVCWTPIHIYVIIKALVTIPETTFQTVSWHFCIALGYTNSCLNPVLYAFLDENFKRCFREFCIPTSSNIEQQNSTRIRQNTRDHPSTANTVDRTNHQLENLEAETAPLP

[16] = A549 cell cytotoxicity, dose response, cytotoxicity control, plate reader, cherry-pick, antagonist series (AID 743412); assay type: functional, cell-based
[17] = MC4R antagonists, dose response, counter-screen for LGR2 antagonist project, cell-based, plate reader, cherry pick (AID 743444); assay type: functional;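 note: transfected HEK 293 cells stimulated with alpha-MSH peptide; potency of inhibitors of the alpha-MSH evoked signal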
[18] = LGR2 antagonists, dose response, cell-based, HEK293, CRE-luciferase reporter, cherry pick, set 2 (AID 743343); assay type: functional;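 note: transfected cells were stimulated with diluted bursicon conditioned medium after compound addition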
[19] = tested on: INS1; experiment: beta cell apoptosis inhibitors, cytokine rescue, dose response, luminescence, retest (AID 449756); assay type: functional, cell-based; settings: Rattus norvegicus;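 note: cell death triggered by IL-1 beta plus TNF-alpha plus IFN-gamma mixture; protective hits raise ATP signal compared with cytokine alone wells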
[20] = inhibitors of SNCA 5'UTR-driven reporter translation, confirmation, H4 neuroglioma cells, luminescence (AID 1988); assay type: functional, cell-based
[21] = HEK293 cell cytotoxicity, dose response, cytotoxicity control, plate reader, cherry-picked samples (AID 743446); assay type: functional, cell-based
[22] = inhibitors of firefly luciferase expression or activity, dose response, H4 neuroglioma cells, luminescence (AID 1990); assay type: functional, cell-based
[23] = target: 5-hydroxytryptamine receptor 5A (Homo sapiens, UniProt P47898); experiment: Counterscreen for agonists of OPRM1-OPRD1 heterodimerization: luminescence-based cell-based high throughput dose response assay to identify agonists of 5-hydroxytryptamine (serotonin) 5A receptor (HTR5A). [Related pubchem assays (depositor defined):AID504326, AID504355, AID504692, AID504904, AID504905]; assay type: functional
Sequence of 5-hydroxytryptamine receptor 5A (P47898 whole entry): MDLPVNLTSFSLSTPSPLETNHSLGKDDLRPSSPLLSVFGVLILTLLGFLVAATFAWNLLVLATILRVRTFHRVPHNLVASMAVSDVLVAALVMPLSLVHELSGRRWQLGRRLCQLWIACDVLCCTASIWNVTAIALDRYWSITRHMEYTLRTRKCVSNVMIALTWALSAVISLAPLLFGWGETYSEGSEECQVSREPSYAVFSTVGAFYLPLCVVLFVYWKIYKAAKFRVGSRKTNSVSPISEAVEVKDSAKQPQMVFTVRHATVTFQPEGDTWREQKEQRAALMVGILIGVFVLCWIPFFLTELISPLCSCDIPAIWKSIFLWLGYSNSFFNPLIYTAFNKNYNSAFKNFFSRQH

[24] = Luminescence Cell-Based Dose Response HTS to Identify Inhibitors of 5'UTR Stem-Loop Driven Prion Protein mRNA Translation in H4 Neuroglioblastoma Cells. [Related pubchem assays: 1827 (Project Summary), 1813 (Primary HTS)]; assay type: functional
[25] = Luminescence Cell-Based Dose Retest to Confirm Inhibitors of Cancer Stem Cells. [Related pubchem assays (depositor defined):AID2717, AID2721]; assay type: functional; settings: Homo sapiens
[26] = (§1) Counterscreen for antagonists of the orexin 1 receptor (OX1R; HCRTR1): Fluorescence-based cell-based high throughput dose response assay to identify antagonists of the parental CHO cell line. [Related pubchem assays (depositor defined):AID434989, AID435008, AID463079, AID485270, AID492963, AID492964, AID492965, AID493232, AID504699, AID504701]; assay type: functional
[27] = tested on: BJ; experiment: cells; assay type: functional, cell-based; settings: Homo sapiens
[28] = cytotoxicity toward DRD oncogenic fibroblasts, dose response, cell-based, non-viral oncogenic, luminescence (AID 1934); assay type: functional; settings: Homo sapiens
[29] = tested on: BJ; experiment: cytotoxicity toward BJ-TERT-LT-ST fibroblasts, dose response, cell-based, RAS-independent, luminescence (AID 1935); assay type: functional; settings: Homo sapiens;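 note: BJ fibroblasts immortalized with TERT plus LT and ST oncogenes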
[30] = cytotoxicity in HEK-293T NF-kB-Luc cells, dose response, cytotoxicity control for B/T-cell NF-kB inhibitor project, cell-based, uHTS hits (AID 489019); assay type: functional;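 note: IC50 reflects cytotoxicity as loss of cell viability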
[31] = target: Luciferin 4-monooxygenase (Photinus pyralis, UniProt P08659); experiment: firefly luciferase enzyme inhibitors, dose response, biochemical, luminescence (AID 1891)
Sequence of Luciferin 4-monooxygenase (P08659 whole entry): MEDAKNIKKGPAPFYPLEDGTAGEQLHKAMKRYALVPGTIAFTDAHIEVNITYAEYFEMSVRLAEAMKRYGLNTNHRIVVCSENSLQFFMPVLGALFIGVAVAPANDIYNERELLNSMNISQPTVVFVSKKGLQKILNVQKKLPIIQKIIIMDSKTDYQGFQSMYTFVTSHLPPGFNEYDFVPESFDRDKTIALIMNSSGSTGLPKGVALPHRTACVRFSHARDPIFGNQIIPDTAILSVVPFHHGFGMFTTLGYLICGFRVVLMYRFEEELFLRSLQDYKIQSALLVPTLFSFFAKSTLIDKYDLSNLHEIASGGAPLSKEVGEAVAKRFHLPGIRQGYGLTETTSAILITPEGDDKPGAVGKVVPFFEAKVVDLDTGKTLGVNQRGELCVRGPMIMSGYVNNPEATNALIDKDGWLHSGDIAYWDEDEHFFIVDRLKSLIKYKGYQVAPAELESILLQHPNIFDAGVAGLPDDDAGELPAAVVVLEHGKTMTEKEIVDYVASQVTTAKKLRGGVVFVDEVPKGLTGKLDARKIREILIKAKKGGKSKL

[32] = tested on: BJ; experiment: cytotoxicity toward Ras-transformed BJeLR fibroblasts, dose response, cell-based, alamar blue fluorescence, cherrypicked samples (AID 2631); assay type: functional; settings: Homo sapiens;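 note: confirmatory dose-response assay in RAS-dependent BJ fibroblasts engineered with TERT, LT and ST, with cytotoxicity read by fluorescence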
[33] = tested on: CHO-K1; experiment: as §1, with “Homogeneous time resolved fluorescence (HTRF)-based” for “Fluorescence-based”, “cell-based” for “cell-based high throughput”, “CHO-K1” for “CHO”; assay type: functional; settings: Cricetulus griseus;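 note: potency for inhibition of ATP-stimulated IP1 production as antagonists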
[34] = tested on: BJ; experiment: cytotoxicity toward BJ-TERT fibroblasts, dose response, cell-based, RAS-independent, luminescence (AID 1933); assay type: functional; settings: Homo sapiens
[35] = tested on: Jurkat; experiment: antigen receptor-induced NF-kB inhibitors, dose response, Jurkat, luciferase reporter, luminescence, B- and T-cell (AID 489004); assay type: functional, cell-based; settings: Homo sapiens;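 note: NF-kB luciferase reporter Jurkat cells stimulated with PMA plus ionomycin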
[36] = Luminescence Cell-Based Dose Confirmation HTS to Identify Inhibitors of Platelet Dense Granule Release. [Related pubchem assays: 1663 (Primary HTS), 1678 (Summary of Project)]; assay type: functional
[37] = target: T2, Orexin/Hypocretin receptor type 1 (Homo sapiens, UniProt O43613); experiment: (§2) Fluorescence-based cell-based high throughput dose response assay for antagonists of the orexin 1 receptor (OX1R; HCRTR1). [Related pubchem assays (depositor defined):AID434989, AID435008, AID463079, AID485270, AID492963, AID492964, AID492965, AID493232, AID504717, AID504718]; assay type: functional
T2 sequence (O43613 whole entry): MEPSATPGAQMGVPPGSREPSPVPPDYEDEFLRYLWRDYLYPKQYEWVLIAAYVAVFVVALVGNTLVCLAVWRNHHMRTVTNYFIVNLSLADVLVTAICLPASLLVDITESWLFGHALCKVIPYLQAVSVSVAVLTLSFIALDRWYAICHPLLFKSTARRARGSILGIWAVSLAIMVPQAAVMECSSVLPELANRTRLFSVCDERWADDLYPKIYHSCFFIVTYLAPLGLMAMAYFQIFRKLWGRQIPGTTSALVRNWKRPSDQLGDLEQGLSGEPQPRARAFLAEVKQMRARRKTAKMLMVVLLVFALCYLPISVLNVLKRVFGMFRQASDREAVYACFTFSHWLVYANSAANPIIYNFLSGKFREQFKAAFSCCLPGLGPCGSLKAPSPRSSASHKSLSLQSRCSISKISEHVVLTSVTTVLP

[38] = target: T2, Orexin/Hypocretin receptor type 1; experiment: as §2, with “Homogeneous Time Resolved Fluorescence (HTRF)-based” for “Fluorescence-based”; assay type: functional

SMILES: CN(C)CCCN(C(=O)CCc1ccccc1)c1nc2ccc(Br)cc2s1
- EC50 [1]: > 54.7 µM (inactive)
- EC50 [2]: 29.5 µM (inactive)
- CC50 [3]: 15.7 µM (active)
- IC50 [4]: 25.4 µM (inactive)
- CC50 [5]: 17.6 µM (active)
- IC50 [6]: 12.7 µM (active)
- CC50 [7]: 10.3 µM (active)
- CC50 [8]: 13.6 µM (active)
- EC50 [9]: > 55.9 µM (inactive)
- AC50 [10]: 18.6 µM (active)

SMILES: COc1cccc(Nc2nc(C)nc3c2oc2ccccc23)c1
- AC50 [11]: 6 µM (active)
- AC50 [12]: 17 µM (active)

SMILES: COc1ccc(C(C)NCCC(c2ccc(OC(C)C)cc2)c2ccccc2OC)cc1 (stereo not drawn)
- AC50 [13]: 6.89 µM (active)
- EC50 [14]: > 92.5 µM (inactive)
- EC50 [15]: > 92.5 µM (inactive)
- AC50 [16]: 6.71 µM (active)
- AC50 [17]: 28.8 µM (active)
- AC50 [18]: 23.2 µM (active)
- AC50 [19]: 7.14 µM (active)
- EC50 [20]: 7.93 µM (active)
- AC50 [21]: 11.8 µM (active)
- EC50 [22]: > 120 µM (not active)
- EC50 [23]: > 92.5 µM (inactive)
- EC50 [24]: 10.6 µM (active)
- AC50 [25]: 4.45 µM (active)

SMILES: CCn1c(C)nc2cc(-c3nc4n(n3)Cc3ccccc3-4)ccc21
- IC50 [26]: > 49.8 µM (inactive)
- EC50 [27]: 1.76 µM (active)
- EC50 [28]: 1.71 µM (active)
- EC50 [29]: 6.25 µM (active)
- IC50 [30]: > 80 µM (inactive)
- EC50 [31]: 0.311 µM (active)
- EC50 [32]: > 133 µM (inactive)
- IC50 [33]: > 66.2 µM (inactive)
- EC50 [34]: 2.18 µM (active)
- IC50 [35]: 0.23 µM (active)
- EC50 [36]: 0.352 µM (active)
- IC50 [37]: 48.1 µM (inactive)
- IC50 [38]: 2.69 µM (active)
